Read-outs that look alike come from different tables or passages of the source. Marks after values point to notes of the source that are not given here.
Legend:
[1] = Repeat dose oral toxicity and toxicokinetics study in Sprague Dawley rats
Experimental: The protocol was amended to add additional TK male animals in Group 6 for Day 1 collection of TK samples at 875 mg/kg.
Blood samples were collected from 3 subsets of 3 animals/sex on Day 1 and Day 28 at predose, 0.25, 0.5, 1, 2, 4, 8 and 24 hours (hr) post-dose for groups 2 to 6 and from one subset of 3 animals/sex at 0.25 hr post-dose for the vehicle group (group 1). […] Non-compartmental analysis (NCA) of plasma concentration data was conducted using Phoenix® WinNonlin®, version 8.0.

[2] = Phase 1 Multiple Ascending Dose (MAD) study Part 1, plasma pharmacokinetics
Experimental: All Part 1 cohorts will be dosed every 12 hours with food for 5 days.
During the treatment period (Day 1 through Day 5), participants will be administered their assigned study medication BID, every 12 h ± 0.25 h (with approximately 240 mL of non-carbonated water), 30 minutes after the start of consumption of their standardised breakfast or dinner (12 h apart). A standardised lunch will be served ≥ 4 h post breakfast and ≥ 4 h prior to dinner. An evening snack will be served ≥ 3 h following evening study medication administration. No additional fluids will be allowed during the 1 h pre- and post-doses. On Day 6, subjects will replicate mealtimes as scheduled on Day 1-5.
In Part 1, blood samples (4 mL each) for PK will be collected for Cohorts 1, 2, 3, 4, and 6 at specified times (hours) at each as follows: • Day 1 and Day 5: 0 (pre-dose), 0.5, 1, 1.5, 2, 2.5, 3, 3.5, 4, 6, 8, 12 (pre-dose), 13, 14, 15, 16, 18 h • Day 2, Day 3 and Day 4: 0 (pre-morning-dose) and 12 h (pre-evening-dose) • Day 6: 12, 18, 24 and 36 h post-last dose • Day 7: 48 h (post-last dose)
Pharmacokinetics for Day 1 to 3 in Part 2 (fed state) will be compared to PK for Day 1 to Day 3 in Part 2 (fasted state). Plasma PK parameters (non-compartmental or compartmental analysis as appropriate) will include, but are not limited to: • Following single dose: Tmax, tlag, Cmax, AUC0-4, AUC0-last, t½, AUC0-inf, lambda z, %AUCext, CL/F, Vz/F, Cmax/D, AUC0-last/D, AUC0-inf/D and MRT (D is dose) • After repeated doses: Ctrough, Ctrough/D • Following repeated doses on last day: Tmax, Cmax, Cavg, tlag, t½, AUC0-4, AUC0-last, AUC0-inf, lambda z, %AUCext, CLss/F, Vzss/F, MRT, PTF, Rac(AUC), Rac(Cmax), Cmax/D, AUClast/D, AUC0-inf/D and Rac (accumulation ratio)
All cohorts (n=6 each) were dosed every 12 hours with food for 5 days at either 100, 250, 500, or 750 mg BID. […] Following processing, the samples were analyzed by HPLC on a Phenomenex Luna PFP(2), 3 µm, 50 x 2.0 mm column, and the eluates were monitored by an API4000 MS/MS detector in positive MRM mode. The data were acquired and processed by the data acquisition system Analyst® (Sciex).

[3] = Single dose, double-blinded, cross-over clinical trial of 801 mg LYT-100 vs pirfenidone, safety and pharmacokinetics; conditions: for Metabolite/Parent Ratio, AUC0-∞, Mean / Metabolite/Parent Ratio, Cmax, Mean: MW-corrected; for metabolite as percent of parent in terms of AUC: single 801 mg dose; for Cmax / tmax: 5-hydroxymethyl metabolite after 801 mg of parent (LYT-110 after LYT-100, LYT-111 after pirfenidone); for Cmax / AUC0-t / AUC(inf) / Kel / t½: Mean (CV%); for tmax: Median (Range); for AUC0-t / AUC(inf) / Kel / t½: 5-hydroxymethyl metabolite after 801 mg of parent; for AUC(inf) / Kel / t½: n=23 LYT-110, n=19 LYT-111
Text: (§1) Following screening, eligible healthy volunteer subjects were admitted to a single clinical study site and were randomized to 1 of 2 treatment sequences. […] In each period, a standardized breakfast was provided to subjects prior to administration of study drug (to compare the PK profiles in the clinically relevant fed state) and plasma samples were collected over a 48-hour period after dosing for evaluation of PK. Dosing between the 2 periods was separated by a minimum of 7 days. Subjects completed the study upon completion of the 48-hour post-dose assessments following dosing period 2.
(§2) All capsules were identical in size, shape, and external color.

[4] = human, in vivo, 48 h
Text: as §1, §2

[5] = cited from earlier work
[6] = cited from earlier work; remark: listed apart in the source
[7] = Day 1, Female, deuterated analyte / non-deuterated counterpart
[8] = across dose groups 100, 250, 500, 750 mg BID (FIG. 20)
[9] = across dose groups 100, 250, 500, 750, 1000 mg BID (FIG. 26)
[10] = after 801 mg LYT-100 (parent LYT-100)
[11] = after 801 mg pirfenidone (parent LYT-101)
[12] = Lancaster et al. 2017, frequencies as high as
[13] = patients aged at least 80 years
[14] = single-center retrospective study of 351 patients

[2H]C([2H])([2H])c1ccc(=O)n(-c2ccc(O)cc2)c1 [LYT-103, d3-4′-hydroxy-pirfenidone]
similarity in exposure (AUC ratio), Group 4 (LYT-100 at 750 mg/kg) / Group 5 (SD-559 at 750 mg/kg) [1, 7]: 21.77 | similarity in exposure (AUC ratio), Group 4 (LYT-100 at 750 mg/kg) / Group 5 (SD-559 at 750 mg/kg) ([1]; Day 1, Male): 34.51 | similarity in exposure (AUC ratio), Group 4 (LYT-100 at 750 mg/kg) / Group 5 (SD-559 at 750 mg/kg) ([1]; Day 28, Female): 38.04 | average ratio to the parent (M/P) by AUC ([2]; Cohort 4, 750 mg BID LYT-100): 0.0017 (0.0012-0.0022) | average ratio to the parent (M/P) by AUC ([2]; Cohort 6, 1000 mg BID LYT-100): 0.0037 (0.0030-0.0058) | AUC accumulation ratio (AUC96-108/AUC0-12) [2, 8]: ~ 1 | AUC accumulation ratio (AUC96-108/AUC0-12) [2, 9]: ~ 1 | Metabolite/Parent Ratio, AUC0-∞, Maximum [3, 10]: 0.2% | Metabolite/Parent Ratio, AUC0-∞, Median [3, 10]: 0.1% | Metabolite/Parent Ratio, AUC0-∞, Minimum [3, 10]: 0.1% | Metabolite/Parent Ratio, Cmax, Maximum [3, 10]: 0.2% | Metabolite/Parent Ratio, Cmax, Median [3, 10]: 0.1% | Metabolite/Parent Ratio, Cmax, Minimum [3, 10]: 0.1% | Metabolite/Parent Ratio, AUC0-∞, Mean [3, 10]: 0.1% | Metabolite/Parent Ratio, Cmax, Mean [3, 10]: 0.1% | quantifiability of metabolite in human plasma ([3]; after LYT-100 801 mg): not quantifiable

Cc1ccc(=O)n(-c2ccc(O)cc2)c1 [LYT-104, 4′-hydroxy-pirfenidone]
Metabolite/Parent Ratio, Cmax, Maximum [3, 11]: 0.1% | Metabolite/Parent Ratio, Cmax, Median [3, 11]: 0.0% | Metabolite/Parent Ratio, Cmax, Minimum [3, 11]: 0.0% | Metabolite/Parent Ratio, Cmax, Mean [3, 11]: 0.0% | metabolite as percent of parent in terms of AUC [3]: less than 2%

[2H]C([2H])(O)c1ccc(=O)n(-c2ccccc2)c1 [LYT-110, d2-5-hydroxymethyl-pirfenidone]
Cmax in rat relative to human ([1]; 750 mg/kg LYT-100, Day 1, male rat vs human 801 mg): ~1825 fold | exposure (AUC) in rat relative to human ([1]; 750 mg/kg LYT-100, Day 1, male rats vs human 801 mg): about 1250 fold | similarity in exposure (AUC ratio), Group 4 (LYT-100 at 750 mg/kg) / Group 5 (SD-559 at 750 mg/kg) [1, 7]: 2.50 | similarity in exposure (AUC ratio), Group 4 (LYT-100 at 750 mg/kg) / Group 5 (SD-559 at 750 mg/kg) ([1]; Day 1, Male): 2.22 | similarity in exposure (AUC ratio), Group 4 (LYT-100 at 750 mg/kg) / Group 5 (SD-559 at 750 mg/kg) ([1]; Day 28, Female): 2.59 | similarity in exposure (AUC ratio), Group 4 (LYT-100 at 750 mg/kg) / Group 5 (SD-559 at 750 mg/kg) ([1]; Day 28, Male): 2.54 | exposure and Cmax vs. non-deuterated corresponding metabolite (SD-788) ([1]; SD-560 750 mg/kg vs SD-559 750 mg/kg, all days, both genders): almost twice | exposure in rats relative to humans ([1]; male rat after 28 days of daily dosing vs human): ~1600 fold | average ratio to the parent (M/P) by AUC ([2]; Cohort 4, 750 mg BID LYT-100): 0.0025 (0.0020-0.0029) | average ratio to the parent (M/P) by AUC ([2]; Cohort 6, 1000 mg BID LYT-100): 0.0028 (0.0018-0.0038) | AUC accumulation ratio (AUC96-108/AUC0-12) [2, 8]: ~ 1 | AUC accumulation ratio (AUC96-108/AUC0-12) [2, 9]: ~ 1 | Cmax [3]: 20.6 (30%) ng/mL | tmax [3]: 2.50 (1.00 - 4.00) hr | AUC0-t [3]: 111 (32%) hr*ng/mL | AUC(inf) [3]: 124 (32%) ^a hr*ng/mL | Kel [3]: 0.294 (44%) ^a ⅟hr | t½ [3]: 2.76 (38%) ^a hr | Metabolite/Parent Ratio, AUC0-∞, Maximum [3, 10]: 0.4% | Metabolite/Parent Ratio, AUC0-∞, Median [3, 10]: 0.2% | Metabolite/Parent Ratio, AUC0-∞, Minimum [3, 10]: 0.1% | Metabolite/Parent Ratio, Cmax, Maximum [3, 10]: 0.4% | Metabolite/Parent Ratio, Cmax, Median [3, 10]: 0.2% | Metabolite/Parent Ratio, Cmax, Minimum [3, 10]: 0.1% | Metabolite/Parent Ratio, AUC0-∞, Mean [3, 10]: 0.2% | Metabolite/Parent Ratio, Cmax, Mean [3, 10]: 0.2%

O=c1ccc(CO)cn1-c1ccccc1 [LYT-111, 5-hydroxymethyl-pirfenidone]
Cmax [3]: 17.1 (36%) ng/mL | tmax [3]: 2.50 (1.50 - 4.00) hr | AUC0-t [3]: 75.8 (42%) hr*ng/mL | AUC(inf) [3]: 89.7 (41%) ^b hr*ng/mL | Kel [3]: 0.367 (29%) ^b ⅟hr | t½ [3]: 2.04 (29%) ^b hr | Metabolite/Parent Ratio, AUC0-∞, Maximum [3, 11]: 0.4% | Metabolite/Parent Ratio, AUC0-∞, Median [3, 11]: 0.2% | Metabolite/Parent Ratio, AUC0-∞, Minimum [3, 11]: 0.1% | Metabolite/Parent Ratio, Cmax, Maximum [3, 11]: 0.4% | Metabolite/Parent Ratio, Cmax, Median [3, 11]: 0.2% | Metabolite/Parent Ratio, Cmax, Minimum [3, 11]: 0.1% | Metabolite/Parent Ratio, AUC0-∞, Mean [3, 11]: 0.2% | Metabolite/Parent Ratio, Cmax, Mean [3, 11]: 0.2% | metabolite as percent of parent in terms of AUC [3]: less than 2%

Cc1ccc(=O)n(-c2ccccc2)c1 [pirfenidone, 5-methyl-1-phenyl-1H-pyridin-2-one]
tolerability of single doses [4]: well tolerated | AUC, % Change Fed vs Fasted ([5]; Pirfenidone @ 800 mg): -15% | Cmax, % Change Fed vs Fasted ([5]; Pirfenidone @ 800 mg): -49% | Tmax, % Change Fed vs Fasted ([5]; Pirfenidone @ 800 mg): +500% | increase in Tmax, fed vs fasted ([5]; pirfenidone): 500% | diarrhea, TEAE frequency [6, 12]: ≤ 27.6 per 100PEY | fatigue, TEAE frequency [6, 12]: ≤ 52.4 per 100PEY | nausea, TEAE frequency [6, 12]: ≤ 62.1 per 100 PEY | adverse drug reactions leading to permanent treatment discontinuation ([6]; PASSPORT study, Cottin et al. 2018): 28.7% | patients who had an adverse event ([6]; compassionate use program, Raghu & Thickett 2013): 44% | half-life ([6]; in humans): about 2.5 hours | ADR leading to discontinuation ([6]; patients aged <65 years): 7.5% | ADR leading to discontinuation [6, 13]: 20.9% | ADR leading to dose modification/interruption [6, 13]: 32.7% | ADR leading to dose modification/interruption ([6]; patients aged less than 65 years): 18.0% | elevations of AST and ALT levels to >3× ULN ([6]; phase III trials): 3.2% | loss of appetite [6, 14]: 17% | nausea/vomiting [6, 14]: 15% | reported AEs that were GI-related [6, 14]: 75%
